From publication PMC3501507, “A Metal-Based Inhibitor of NEDD8-Activating Enzyme” (PLoS ONE, 2012)

Biological target: T1, NEDD8-activating enzyme (NAE) (Homo sapiens, UniProt Q8TBC4)
T1 construct: gene UBA3; recombinant human NAE (APPBP1/UBA3 heterodimer); with APPBP1 (NAE1)
T1 sequence (Q8TBC4 2-463): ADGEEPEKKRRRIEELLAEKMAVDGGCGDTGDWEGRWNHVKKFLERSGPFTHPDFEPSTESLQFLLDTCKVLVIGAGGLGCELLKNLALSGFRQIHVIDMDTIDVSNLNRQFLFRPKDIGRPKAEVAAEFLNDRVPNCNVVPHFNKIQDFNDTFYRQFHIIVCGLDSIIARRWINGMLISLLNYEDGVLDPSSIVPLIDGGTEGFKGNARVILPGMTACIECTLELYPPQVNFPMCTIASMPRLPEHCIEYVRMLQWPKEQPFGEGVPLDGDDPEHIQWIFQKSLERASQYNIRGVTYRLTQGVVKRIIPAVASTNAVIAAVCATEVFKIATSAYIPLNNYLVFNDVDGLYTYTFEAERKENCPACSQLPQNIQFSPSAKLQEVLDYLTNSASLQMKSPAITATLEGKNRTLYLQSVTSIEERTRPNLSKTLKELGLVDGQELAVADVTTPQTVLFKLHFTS
T1 sequence (Q13564 2-534 partner): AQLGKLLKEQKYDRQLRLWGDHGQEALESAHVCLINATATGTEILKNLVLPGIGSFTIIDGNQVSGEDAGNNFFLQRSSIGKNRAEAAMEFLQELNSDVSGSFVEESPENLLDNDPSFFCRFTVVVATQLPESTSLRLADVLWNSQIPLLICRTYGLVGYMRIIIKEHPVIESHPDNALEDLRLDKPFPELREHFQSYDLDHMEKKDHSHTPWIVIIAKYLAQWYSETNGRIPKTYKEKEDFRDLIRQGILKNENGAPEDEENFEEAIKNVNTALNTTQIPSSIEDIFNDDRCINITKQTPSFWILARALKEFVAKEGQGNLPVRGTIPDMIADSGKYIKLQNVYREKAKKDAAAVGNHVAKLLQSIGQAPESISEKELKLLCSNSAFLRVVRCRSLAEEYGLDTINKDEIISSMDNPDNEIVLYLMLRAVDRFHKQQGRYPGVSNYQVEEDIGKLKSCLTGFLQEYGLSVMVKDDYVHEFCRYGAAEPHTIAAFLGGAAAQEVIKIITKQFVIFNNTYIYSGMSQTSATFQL
Test: cell-free Ubc12-NEDD8 conjugation assay, western blot
Format: biochemical

| Structure (SMILES) | IC50 |
| --- | --- |
| c1cc[c]2c(c1)-c1cccc[n+]1[Rh-3]213([c]2ccccc2-c2cccc[n+]21)[n+]1cccc2c4nc5ccccc5nc4c4ccc[n+]3c4c21 [compound 1, [Rh(ppy)2(dppz)]^+] | ~1.5 µM |
| O=Cc1ccc2[c](c1)[Rh-3]13([c]4cc(C=O)ccc4-c4cccc[n+]41)([n+]1ccccc1-2)[n+]1cccc2c4nc5ccc([N+](=O)[O-])cc5nc4c4ccc[n+]3c4c21 [compound 4, complex 4] | ~13 µM |
| Cc1cc2nc3c4ccc[n+]5c4c4c(ccc[n+]4[Rh-3]546([c]5cc(C=O)ccc5-c5cccc[n+]54)[c]4cc(C=O)ccc4-c4cccc[n+]46)c3nc2cc1C [compound 3, complex 3] | ~6.25 µM |
| Cc1cc2nc3c4ccc[n+]5c4c4c(ccc[n+]4[Rh-3]546([c]5ccccc5-c5cccc[n+]54)[c]4ccccc4-c4cccc[n+]46)c3nc2cc1C [compound 2, complex 2] | ~6.25 µM |
